Experimental findings from ChEMBL document CHEMBL3600331, “Small molecule inhibits activity of scavenger receptor A: Lead identification and preliminary studies” (Bioorg Med Chem Lett, 2015) are described below.

The target of experiment [1] is T1, Macrophage scavenger receptor types I and II (Mus musculus) (UniProt P30204).
T1 sequence (whole entry): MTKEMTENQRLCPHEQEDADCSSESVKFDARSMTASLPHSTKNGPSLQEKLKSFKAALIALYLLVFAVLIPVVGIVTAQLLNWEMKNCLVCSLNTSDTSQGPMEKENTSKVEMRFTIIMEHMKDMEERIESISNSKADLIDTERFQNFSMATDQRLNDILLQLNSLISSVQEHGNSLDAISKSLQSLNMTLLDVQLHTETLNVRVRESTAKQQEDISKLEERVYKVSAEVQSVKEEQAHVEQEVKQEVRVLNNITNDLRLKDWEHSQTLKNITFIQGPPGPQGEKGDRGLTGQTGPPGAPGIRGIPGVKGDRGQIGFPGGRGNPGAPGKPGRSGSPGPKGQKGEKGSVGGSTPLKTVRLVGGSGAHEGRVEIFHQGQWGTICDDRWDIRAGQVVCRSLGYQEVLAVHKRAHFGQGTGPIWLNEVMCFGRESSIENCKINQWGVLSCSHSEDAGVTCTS
Nature of the experiment: Inhibition of scavenger receptor A in wild type C57BL/6 mouse BMDC assessed as gp100 (25 to 33) peptide-induced T cell activation by measuring IL2 production at 20 uM after 56 hrs by ELISA. For orientation: In an ELISA, binding on a coated surface is turned into a signal by an enzyme label.

Experiment [2] deals with T1, Macrophage scavenger receptor types I and II (Mus musculus). Nature of the experiment: Inhibition of scavenger receptor A in wild type C57BL/6 mouse BMDC assessed as OVA257-264 peptide-induced T cell activation by measuring IL2 production at 10 uM after 56 hrs by ELISA.
For experiment [3] the target is unchanged. Nature of the experiment: Inhibition of scavenger receptor A in wild type C57BL/6 mouse BMDC assessed as OVA257-264 peptide-induced T cell activation by measuring IL2 production at 30 uM after 56 hrs by ELISA.
Experiment [4] deals with T-cell. Put plainly: Inhibition of OVA257-264 peptide-induced T cell activation in SRA-deficient C57BL/6 mouse BMDC assessed as IL2 production at 10 to 30 uM after 56 hrs by ELISA. Format: functional, cell-based.
For experiment [5], the system named is B3Z. Nature of the experiment: Inhibition of scavenger receptor A (unknown origin) in mouse B3Z cells assessed as anti-CD3/CD28 antibody-induced T cell activation by measuring transcription of il2 gene after 5 hrs by beta-galactosidase assay. The experiment is classed as cell-based.
Experiment [6] deals with T1, Macrophage scavenger receptor types I and II (Mus musculus). Put plainly: Inhibition of scavenger receptor A in mouse DC1.2 cells assessed as decrease in poly(I:C)-induced activation of IRF3 pretreated for 2 hrs before poly(I:C) stimulation measured after 3 hrs by immunoblotting. The experiment is classed as cell-based. For orientation: A western blot detects proteins with antibodies after separation by electrophoresis.

Experiment [7] shares this target. Put plainly: Inhibition of scavenger receptor A in mouse DC1.2 cells assessed as decrease in poly(I:C)-induced activation of STAT1 pretreated for 2 hrs before poly(I:C) stimulation measured after 3 hrs by immunoblotting. The experiment is classed as cell-based.

SMILES strings stand for the structures. The source made the active and inactive calls. The rule behind the calls is not given here.

With `O=C(O)c1cc(O)c2c(c1)C(=O)c1cccc(O)c1C2=O`, the inhibition entry in experiment [1], in experiment [2] and in experiment [3] was “Active” throughout. In addition, the inhibition result in experiment [4] was “inactive”. The inhibition result in experiment [5], in experiment [6] and in experiment [7] was “Dose-dependent effect” in each case.

Take `O=C(O)c1cc(O)c2c(c1)[C@@H]([C@H]1c3cc(C(=O)O)cc(O)c3C(=O)c3c(O[C@@H]4O[C@H](CO)[C@@H](O)[C@H](O)[C@H]4O)cccc31)c1cccc(O[C@@H]3O[C@H](CO)[C@@H](O)[C@H](O)[C@H]3O)c1C2=O`: the inhibition entry in experiment [1] is “Active”.
